Measurements taken from patent US9539257B2, “Method of treating cancer” (NOVARTIS AG, priority 2009, dated 2017).

What was measured:
[1] = previous reports; cited from earlier work

From the text for HLA-DQA1*0201: The confirmatory study also offered a means to evaluate the specificity of the lapatanib effect by assessment of the letrozole-only arm in the same trial.

Compound | type of liver injury [1] | DQA1*0201 carriage in ALT cases (HLA-DQA1*0201; letrozole-only comparator treatment arm (3/11)) | DQA1*0201 carriage in ALT controls (HLA-DQA1*0201; letrozole-only comparator treatment arm (40/159)) | cumulative incidence of ALT elevation, DQA1*0201 carriers compared with non-carriers (HLA-DQA1*0201; letrozole-only treated patients, FIG. 3)
CC1(C)S[C@@H]2[C@H](NC(=O)[C@H](N)c3ccc(O)cc3)C(=O)N2[C@H]1C(=O)O [Amoxicillin] | cholestatic | – | – | –
Cc1onc(-c2c(F)cccc2Cl)c1C(=O)N[C@@H]1C(=O)N2[C@@H]1SC(C)(C)[C@@H]2C(=O)O [flucloxacillin] | cholestatic | – | – | –
N#Cc1ccc(C(c2ccc(C#N)cc2)n2cncn2)cc1 [letrozole, 4-[(4-cyanophenyl)-(1,2,4-triazol-1-yl)methyl]benzonitrile] | – | 27% | 25% | did not differ
